Values joined by “and” are separate entries in the source; they are usually repeats but may differ in a detail not shown here. Identical values can stand only once. Bounds are passed on as bounds.

Assay [1] concerns the target Isocitrate dehydrogenase [NADP], mitochondrial (Homo sapiens, UniProt P48735, R140Q). Kind of assay: Inhibition of IDH2 R140Q mutant (unknown origin).
The target in assay [2] is Isocitrate dehydrogenase [NADP] cytoplasmic (Homo sapiens, UniProt O75874). Description: Inhibition of wild type IDH1 (unknown origin).
Assay [3] concerns the target Isocitrate dehydrogenase [NADP] cytoplasmic (Homo sapiens, UniProt O75874, R132H). Kind of assay: Inhibition of IDH1 R132H mutant (unknown origin).
Assay [4] deals with Isocitrate dehydrogenase [NADP], mitochondrial (Homo sapiens, UniProt P48735, R172K). Description: Inhibition of IDH2 R172K mutant (unknown origin).
In assay [5] the target is T1, Isocitrate dehydrogenase [NADP], mitochondrial (Homo sapiens, UniProt P48735).
T1 sequence (P48735 whole entry): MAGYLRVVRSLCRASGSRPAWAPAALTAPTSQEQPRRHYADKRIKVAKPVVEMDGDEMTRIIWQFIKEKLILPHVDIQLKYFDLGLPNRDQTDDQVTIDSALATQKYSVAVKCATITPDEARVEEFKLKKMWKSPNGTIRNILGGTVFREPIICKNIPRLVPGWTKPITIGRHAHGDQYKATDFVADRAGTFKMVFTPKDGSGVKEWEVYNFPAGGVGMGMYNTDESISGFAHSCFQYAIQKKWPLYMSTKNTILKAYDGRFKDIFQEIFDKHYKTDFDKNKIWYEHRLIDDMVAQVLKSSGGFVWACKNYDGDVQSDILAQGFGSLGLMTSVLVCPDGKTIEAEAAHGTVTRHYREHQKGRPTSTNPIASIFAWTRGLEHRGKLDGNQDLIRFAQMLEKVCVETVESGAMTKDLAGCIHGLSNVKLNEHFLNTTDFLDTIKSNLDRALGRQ
Kind of assay: Inhibition of wild type IDH2 (unknown origin).

In assay [6] the target is Isocitrate dehydrogenase [NADP] cytoplasmic (Homo sapiens, UniProt O75874, R132C). Kind of assay: Inhibition of IDH1 R132C mutant (unknown origin).
Isocitrate dehydrogenase [NADP] cytoplasmic (Homo sapiens, UniProt O75874, R132C), sequence (O75874 2-414 R132C limits assumed): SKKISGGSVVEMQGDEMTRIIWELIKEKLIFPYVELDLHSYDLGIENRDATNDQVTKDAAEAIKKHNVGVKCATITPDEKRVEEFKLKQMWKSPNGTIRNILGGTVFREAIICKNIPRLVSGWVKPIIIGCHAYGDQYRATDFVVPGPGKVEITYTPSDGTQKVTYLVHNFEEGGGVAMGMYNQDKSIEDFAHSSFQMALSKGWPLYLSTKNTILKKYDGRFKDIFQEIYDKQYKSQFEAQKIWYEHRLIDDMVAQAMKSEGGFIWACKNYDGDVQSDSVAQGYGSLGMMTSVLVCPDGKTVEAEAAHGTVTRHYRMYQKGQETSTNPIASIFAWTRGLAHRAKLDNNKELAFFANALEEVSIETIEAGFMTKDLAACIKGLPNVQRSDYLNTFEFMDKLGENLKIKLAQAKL

Isocitrate dehydrogenase [NADP] cytoplasmic (Homo sapiens, UniProt O75874, R132H), sequence (O75874 2-414 R132H limits assumed): as the sequence (O75874 2-414 R132C limits assumed) above, with C131H counted along it
Isocitrate dehydrogenase [NADP], mitochondrial (Homo sapiens, UniProt P48735, R140Q), sequence (P48735 40-452 R140Q limits assumed): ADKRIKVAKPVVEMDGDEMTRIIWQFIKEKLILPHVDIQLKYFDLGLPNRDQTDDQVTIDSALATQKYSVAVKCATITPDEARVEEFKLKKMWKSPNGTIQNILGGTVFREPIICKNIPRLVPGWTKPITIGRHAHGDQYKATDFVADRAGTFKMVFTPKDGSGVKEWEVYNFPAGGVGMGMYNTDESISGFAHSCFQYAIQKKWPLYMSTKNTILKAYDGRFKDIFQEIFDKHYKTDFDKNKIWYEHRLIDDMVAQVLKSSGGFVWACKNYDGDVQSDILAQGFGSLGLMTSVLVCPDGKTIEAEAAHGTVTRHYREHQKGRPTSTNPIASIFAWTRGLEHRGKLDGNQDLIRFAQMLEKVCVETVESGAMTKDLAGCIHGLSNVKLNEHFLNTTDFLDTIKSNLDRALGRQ
Isocitrate dehydrogenase [NADP], mitochondrial (Homo sapiens, UniProt P48735, R172K), sequence (P48735 40-452 R172K limits assumed): as the sequence (P48735 40-452 R140Q limits assumed) above, with Q101R, R133K counted along it
Isocitrate dehydrogenase [NADP] cytoplasmic (Homo sapiens, UniProt O75874), sequence (O75874 whole entry): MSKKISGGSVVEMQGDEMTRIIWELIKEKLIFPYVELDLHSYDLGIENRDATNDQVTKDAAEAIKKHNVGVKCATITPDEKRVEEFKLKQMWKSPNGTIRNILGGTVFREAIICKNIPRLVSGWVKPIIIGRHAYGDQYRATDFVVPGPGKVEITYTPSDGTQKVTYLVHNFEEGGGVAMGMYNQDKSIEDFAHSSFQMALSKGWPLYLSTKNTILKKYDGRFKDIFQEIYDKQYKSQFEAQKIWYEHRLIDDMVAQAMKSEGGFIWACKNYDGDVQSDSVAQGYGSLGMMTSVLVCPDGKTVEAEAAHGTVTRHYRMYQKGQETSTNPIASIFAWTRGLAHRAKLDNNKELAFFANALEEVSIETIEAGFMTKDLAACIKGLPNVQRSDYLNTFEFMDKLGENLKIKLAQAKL

As to `N#Cc1ccc2nc(Nc3cc(S(=O)(=O)NC4CC4)ccc3-c3ccsc3)[nH]c2c1`, the IC50 (as a rule, the midpoint of a concentration-inhibition curve) in assay [1] stood at 97.9 µM.

Turning to `CCOC(=O)c1ccc2nc(Nc3cc(S(=O)(=O)NC4CC4)ccc3-c3ccsc3)[nH]c2c1`, the IC50 in assay [1] is above 100 µM.

For `COc1ccc2nc(Nc3cc(S(=O)(=O)NC4CC4)ccc3-c3ccsc3)[nH]c2c1`, in assay [1], the midpoint of inhibition, the IC50, lay at 46.9 µM.

With `COC(=O)c1ccc2nc(Nc3cc(S(=O)(=O)NC4CC4)ccc3-c3ccsc3)[nH]c2c1`, the IC50 in assay [1] was above 100 µM.

Turning to `O=S(=O)(NC1CC1)c1ccc(-c2ccsc2)c(Nc2nc3ccc(Cl)cc3[nH]2)c1`, in assay [1], half-maximal inhibition (IC50) required 11.9 µM.

In assay [1], `O=S(=O)(NC1CC1)c1ccc(-c2ccsc2)c(Nc2nc3ccc(Cl)c(Cl)c3[nH]2)c1` had an IC50 of 2.72 µM.

As to `O=S(=O)(NC1CC1)c1ccc(-c2ccsc2)c(Nc2nc3cc(Br)ccc3[nH]2)c1`, the IC50 is above 100 µM in assay [2]; above 100 µM in assay [3]; above 100 µM in assay [4]; above 100 µM in assay [5]; above 100 µM in assay [6]; 2.02 µM and 0.26 µM in assay [1].

`O=S(=O)(NC1CC1)c1ccc(-c2ccsc2)c(Nc2nc3ccccc3[nH]2)c1`: in assay [1], 5.41 µM corresponded to half-maximal inhibition (IC50).

In the case of `O=C(Nc1cccc(C(F)(F)F)c1)Nc1cc(S(=O)(=O)NC2CC2)ccc1-c1ccsc1`, the IC50 in assay [2], in assay [3] and in assay [6] was above 100 µM each time.

In the case of `O=S(=O)(NC1CC1)c1ccc(-c2ccsc2)c(Nc2nc3ccc(C(F)(F)F)c(Cl)c3[nH]2)c1`, the IC50 in assay [1] was 4.34 µM.

`O=S(=O)(NC1CC1)c1ccc(-c2ccsc2)c(Nc2nc3cc(F)ccc3[nH]2)c1`: the IC50 in assay [2] was above 100 µM; in assay [3], above 100 µM; in assay [4], 78.8 µM; in assay [5] it was above 100 µM; in assay [6], above 100 µM; in assay [1], 0.73 µM.

As to `O=S(=O)(NC1CC1)c1ccc(-c2ccsc2)c(Nc2nc3ccc(Br)c(Br)c3[nH]2)c1`, the IC50 in assay [2] was above 100 µM; in assay [3] it was above 100 µM; in assay [4], above 100 µM; in assay [5] it was above 100 µM; in assay [6], above 100 µM; in assay [1] it was 0.65 µM.

With `CC(C)(O)CNc1nc(Nc2ccnc(C(F)(F)F)c2)nc(-c2cccc(C(F)(F)F)n2)n1` [ENASIDENIB], the IC50 is above 100 µM in assay [2]; above 100 µM in assay [3]; 1.08 µM in assay [4]; above 100 µM in assay [5]; above 100 µM in assay [6]; 0.31 µM in assay [1].

For the compound `Cc1cc(C)c2[nH]c(Nc3cc(S(=O)(=O)NC4CC4)ccc3-c3ccsc3)nc2c1`, the IC50 was above 100 µM in assay [2]; above 100 µM in assay [3]; 51.8 µM in assay [4]; above 100 µM in assay [5]; above 100 µM in assay [6]; 0.96 µM in assay [1].

In the case of `O=S(=O)(NC1CC1)c1ccc(-c2ccsc2)c(Nc2nc3ccc(C(F)(F)F)cc3[nH]2)c1`, the IC50 in assay [1] came out at 14.1 µM.

Compound `O=S(=O)(NC1CC1)c1ccc(-c2ccsc2)c(Nc2nc3ccc(F)c(Cl)c3[nH]2)c1` yielded an IC50 in assay [1] of 10.3 µM.

For the compound `Cc1ccc2nc(Nc3cc(S(=O)(=O)NC4CC4)ccc3-c3ccsc3)[nH]c2c1C`, it took 1.61 µM to reach half-maximal inhibition in assay [1] (IC50).

As for `O=S(=O)(NC1CC1)c1ccc(-c2ccsc2)c(Nc2nc3cc(F)cc(F)c3[nH]2)c1`, in assay [1], the IC50 stood at 4.94 µM.

As for `Cc1ccccc1C(C(=O)NC1CCCCC1)N(C(=O)Cn1ccnc1C)c1cccc(F)c1` (configuration not stated), the half-inhibitory concentration (IC50) in assay [2] is above 100 µM; in assay [3] it was 0.17 µM; in assay [4], above 100 µM; in assay [5], above 100 µM; in assay [6], 0.39 µM; in assay [1], above 100 µM.

Consider `O=S(=O)(NC1CC1)c1ccc(-c2ccsc2)c(Nc2nc3ccc(F)c(F)c3[nH]2)c1`, for which, in assay [1], the midpoint of inhibition, the IC50, lay at 13.8 µM.
